Tested on: not listed separately
Assay: logP (HCOOH), physicochemical characterization
Conditions: not given

For `Cc1ncccc1C(=O)Nc1c(NC2CC2)ncnc1-c1ccc(F)cc1` [1-1], which “logP (HCOOH)” value is on record?
The value was 0.71.

With `CCc1ncccc1C(=O)Nc1c(NC2CC2)ncnc1-c1ccc(SC(F)(F)F)cc1` [1-114] as the compound, how does the “logP (HCOOH)” value read?
The value was 1.4.

With `O=C(Nc1c(NC2CC2)ncnc1-c1ccccc1)c1cccnc1` [1-128] as the compound, how does the “logP (HCOOH)” value read?
The value was 0.63.

With `CCc1ncccc1C(=O)Nc1c(NC2CC2)ncnc1-c1ccc(C#N)cc1` [1-133] as the compound, how does the “logP (HCOOH)” value read?
Its value is 1.10.

For `CCc1ncccc1C(=O)Nc1c(NC2CC2)ncnc1-c1ccc(F)cc1Cl` [1-139], which “logP (HCOOH)” value is on record?
Its value is 0.79.

Which “logP (HCOOH)” value does the source give for `CCOc1ncccc1C(=O)Nc1c(NC2CC2)ncnc1-c1ccc(C#N)cc1` [1-160] here?
The value was 1.80.

Which “logP (HCOOH)” value does the source give for `CCc1ncccc1C(=O)Nc1c(NC2CC2)ncnc1-c1ccc(F)cc1C` [1-180] here?
The value was 1.10.

For `CCc1ncccc1C(=O)Nc1c(NC2CC2)ncnc1-c1ccccc1C` [1-182], which “logP (HCOOH)” value is on record?
The value was 0.94.

For `CCc1ncccc1C(=O)Nc1c(NC2CC2)ncnc1-c1ccc(Cl)cc1C` [1-188], which “logP (HCOOH)” value is on record?
Its value is 1.40.

With `O=C(Nc1c(NC2CC2)ncnc1-c1ccc(Cl)cc1)c1c(F)cccc1Cl` [1-263] as the compound, how does the “logP (HCOOH)” value read?
Its value is 2.20.

For `CCCc1ncccc1C(=O)Nc1c(NC2CC2)ncnc1-c1ccc(Cn2nc(C(F)(F)F)nc2C(F)(F)F)cc1` [1-264], which “logP (HCOOH)” value is on record?
The value was 1.9.

Which “logP (HCOOH)” value does the source give for `CCc1ncccc1C(=O)Nc1c(NC2CC2)nc(C)nc1-c1ccccc1` [1-275] here?
The value was 0.76.

Which “logP (HCOOH)” value does the source give for `CCc1ncccc1C(=O)Nc1c(NC2CC2)nc(C)nc1-c1ccc(F)cc1` [1-276] here?
Its value is 0.88.

For `CCc1ncccc1C(=O)Nc1c(NC2CC2)nc(C)nc1-c1ccc(F)cc1F` [1-278], which “logP (HCOOH)” value is on record?
The value was 1.

Which “logP (HCOOH)” value does the source give for `CCc1ncccc1C(=O)Nc1c(Br)ncnc1NC1CC1` [3-3] here?
The value was 0.84.

For `O=C(Nc1c(NC2CC2)ncnc1-c1ccc(F)cc1)c1ccnn1-c1ccc(F)cc1` [9-1], which “logP (HCOOH)” value is on record?
Its value is 1.70.

Which “logP (HCOOH)” value does the source give for `O=C(Nc1c(NC2CC2)ncnc1-c1ccc(F)cc1)c1ccnn1-c1ccc(Cl)cc1` [9-2] here?
The value was 2.02.

With `O=C(Nc1c(NC2CC2)ncnc1-c1ccc(F)cc1)c1ccnn1-c1ccccc1Cl` [9-3] as the compound, how does the “logP (HCOOH)” value read?
Its value is 1.76.

Which “logP (HCOOH)” value does the source give for `O=C(Nc1c(NC2CC2)ncnc1-c1ccc(Cl)cc1)c1ccnn1-c1ccccc1Cl` [9-4] here?
Its value is 2.05.

Tested on: Spodoptera litura third instar larvae
Assay: not given
Conditions: active compound concentration of 100 ppm; sweet potato leaves immersed; after 7 days

With `CCc1ncccc1C(=O)Nc1c(NC2CC2)ncnc1-c1ccc(Cl)cc1` [1-177, N-[4-(4-Chlorophenyl)-6-cyclopropylaminopyrimidin-5-yl]-2-ethylnicotinamide] as the compound, how does the insecticidal activity read?
The insecticidal activity was 100%.

For `CCc1ncccc1C(=O)Nc1c(NC2CC2)ncnc1-c1ccc(C(F)(C(F)(F)F)C(F)(F)F)cc1` [1-232], which insecticidal activity is on record?
Its insecticidal activity is 100%.

With `O=C(Nc1c(NC2CC2)ncnc1-c1ccccc1)c1cccnc1C1CC1` [1-234] as the compound, how does the insecticidal activity read?
The insecticidal activity was 100%.

For `O=C(Nc1c(NC2CC2)ncnc1-c1ccc(F)cc1)c1cccnc1C1CC1` [1-235], which insecticidal activity is on record?
Its insecticidal activity is 100%.

For `O=C(Nc1c(NC2CC2)ncnc1-c1ccc(Cl)cc1)c1cccnc1C1CC1` [1-236], which insecticidal activity is on record?
Its insecticidal activity is 100%.

Which insecticidal activity does the source give for `CCCc1ncccc1C(=O)Nc1c(NC2CC2)ncnc1-c1ccccc1` [1-237] here?
The insecticidal activity was 100%.

With `CCCc1ncccc1C(=O)Nc1c(NC2CC2)ncnc1-c1ccc(F)cc1` [1-238] as the compound, how does the insecticidal activity read?
Its insecticidal activity is 100%.

Which insecticidal activity does the source give for `CCCc1ncccc1C(=O)Nc1c(NC2CC2)ncnc1-c1ccc(Cl)cc1` [1-239] here?
Its insecticidal activity is 100%.

Which insecticidal activity does the source give for `O=C(Nc1c(NC2CC2)ncnc1-c1ccc(F)cc1F)c1cccnc1C1CC1` [1-240] here?
Its insecticidal activity is 100%.

For `O=C(Nc1c(NC2CC2)ncnc1-c1ccc(Cl)cc1)c1cccnc1C(F)(F)C(F)(F)F` [1-241], which insecticidal activity is on record?
Its insecticidal activity is 100%.

With `N#Cc1ccc(-c2ncnc(NC3CC3)c2NC(=O)c2cccnc2C2CC2)cc1` [1-242] as the compound, how does the insecticidal activity read?
Its insecticidal activity is 100%.

Which insecticidal activity does the source give for `O=C(Nc1c(NC2CC2)ncnc1-c1ccc(OC(F)(F)F)cc1)c1cccnc1C1CC1` [1-243] here?
Its insecticidal activity is 100%.

For `CCCc1ncccc1C(=O)Nc1c(NC2CC2)ncnc1-c1ccc(Cl)cc1Cl` [1-244], which insecticidal activity is on record?
Its insecticidal activity is 100%.

For `CCCc1ncccc1C(=O)Nc1c(NC2CC2)ncnc1-c1ccc(F)cc1F` [1-245], which insecticidal activity is on record?
Its insecticidal activity is 100%.

Which insecticidal activity does the source give for `CCCc1ncccc1C(=O)Nc1c(NC2CC2)ncnc1-c1ccc(C#N)cc1` [1-246] here?
The insecticidal activity was 100%.

Which insecticidal activity does the source give for `CCc1ncccc1C(=O)Nc1c(NC2CC2)ncnc1-c1ccc(Cn2nc(C(F)(F)C(F)(F)F)cc2C(F)(F)F)cc1` [1-247] here?
Its insecticidal activity is 100%.

Which insecticidal activity does the source give for `O=C(Nc1c(NC2CC2)ncnc1-c1ccc(Cn2nc(C(F)(F)F)cc2C(F)(F)F)cc1)c1cccnc1C1CC1` [1-252] here?
The insecticidal activity was 100%.

Which insecticidal activity does the source give for `O=C(Nc1c(NC2CC2)ncnc1-c1ccc(Cn2nc(C(F)(F)C(F)(F)F)cc2C(F)(F)F)cc1)c1cccnc1C1CC1` [1-253] here?
The insecticidal activity was 100%.

Which insecticidal activity does the source give for `O=C(Nc1c(NC2CC2)ncnc1-c1ccc(F)cc1F)c1cccnc1CC(F)(F)F` [1-254] here?
The insecticidal activity was 100%.

With `CCc1ccccc1C(=O)Nc1c(NC2CC2)ncnc1-c1ccc(OC(F)(F)F)cc1` [1-257] as the compound, how does the insecticidal activity read?
Its insecticidal activity is 100%.

Which insecticidal activity does the source give for `CCc1ncccc1C(=O)Nc1c(NC2CC2)ncnc1-c1ccc(Cn2nc(C(F)(F)F)nc2C(F)(F)F)cc1` [1-258] here?
Its insecticidal activity is 100%.

With `O=C(Nc1c(NC2CC2)ncnc1-c1ccc(Cn2nc(C(F)(F)F)nc2C(F)(F)F)cc1)c1cccnc1C1CC1` [1-259] as the compound, how does the insecticidal activity read?
The insecticidal activity was 100%.

Which insecticidal activity does the source give for `CCCc1ncccc1C(=O)Nc1c(NC2CC2)ncnc1-c1ccc(Cn2nc(C(F)(F)F)nc2C(F)(F)F)cc1` [1-264] here?
Its insecticidal activity is 100%.

Which insecticidal activity does the source give for `CCc1ccccc1C(=O)Nc1c(NC2CC2)ncnc1-c1ccc(Cn2nc(C(F)(F)F)nc2C(F)(F)F)cc1` [1-265] here?
Its insecticidal activity is 100%.

Which insecticidal activity does the source give for `CCc1ncccc1C(=O)Nc1c(NC2CC2)ncnc1-c1ccc(Cn2ccc(C(F)(F)C(F)(F)F)n2)cc1` [1-266] here?
Its insecticidal activity is 100%.

For `CCc1ncccc1C(=O)Nc1c(NC2CC2)ncnc1-c1ccc(Cn2ccc(C(F)(F)C(F)(F)C(F)(F)F)n2)cc1` [1-267], which insecticidal activity is on record?
Its insecticidal activity is 100%.

Which insecticidal activity does the source give for `CCc1ncccc1C(=O)Nc1c(NC2CC2)ncnc1-c1ccc(Cn2nc(C(F)(F)F)cc2C(F)(F)F)cc1` [1-268] here?
Its insecticidal activity is 100%.

For `CCc1ncccc1C(=O)Nc1c(NC2CC2)ncnc1-c1ccc(Cn2nc(C(F)(F)C(F)(F)F)cc2C(F)(F)C(F)(F)F)cc1` [1-269], which insecticidal activity is on record?
The insecticidal activity was 100%.

With `CCc1ccccc1C(=O)Nc1c(NC2CC2)ncnc1-c1ccc(Cn2cnc(C(F)(F)F)n2)cc1` [1-286] as the compound, how does the insecticidal activity read?
Its insecticidal activity is 100%.

Which insecticidal activity does the source give for `CCc1ncccc1C(=O)Nc1c(NC2CC2)ncnc1-c1ccc(Oc2ncc(C(F)(F)F)cc2Cl)cc1` [1-310] here?
The insecticidal activity was 100%.

With `CCc1ncccc1C(=O)Nc1c(NC2CC2)ncnc1-c1ccc(Oc2ncccc2C(F)(F)F)cc1` [1-311] as the compound, how does the insecticidal activity read?
Its insecticidal activity is 100%.

Which insecticidal activity does the source give for `CCc1ncccc1C(=O)Nc1c(NC2CC2)ncnc1-c1ccc(Oc2cccc(C(F)(F)F)n2)cc1` [1-312] here?
The insecticidal activity was 100%.

For `CCc1ncccc1C(=O)Nc1c(NC2CC2)nc(C(F)(F)F)nc1-c1ccc(F)cc1` [1-313], which insecticidal activity is on record?
The insecticidal activity was 100%.

With `CCc1ncccc1C(=O)Nc1c(NC2CC2)nc(C(F)(F)F)nc1-c1ccc(F)cc1F` [1-314] as the compound, how does the insecticidal activity read?
The insecticidal activity was 100%.

For `CCc1ncccc1C(=O)Nc1c(NC2CC2)ncnc1-c1ccc(Oc2nc(C(F)(F)F)cc(C(F)(F)C(F)(F)F)n2)cc1` [1-317], which insecticidal activity is on record?
The insecticidal activity was 100%.

Which insecticidal activity does the source give for `CCc1ncccc1C(=O)Nc1c(NC2CC2)ncnc1-c1ccc(Cc2nc(C(F)(F)C(F)(F)C(F)(F)F)n(C)n2)cc1` [1-318] here?
The insecticidal activity was 100%.

For `CCc1ncccc1C(=O)Nc1c(NC2CC2)ncnc1-c1ccc(Cc2n[nH]c(C(F)(F)C(F)(F)C(F)(F)F)n2)cc1` [1-319], which insecticidal activity is on record?
Its insecticidal activity is 100%.

With `O=C(Nc1c(NC2CC2)nc(C(F)(F)F)nc1-c1ccc(F)cc1)c1cccnc1CC(F)(F)F` [1-324] as the compound, how does the insecticidal activity read?
Its insecticidal activity is 100%.

Which insecticidal activity does the source give for `O=C(Nc1c(NC2CC2)nc(Cl)nc1-c1ccc(F)cc1)c1cccnc1CC(F)(F)F` [1-325] here?
Its insecticidal activity is 100%.

Which insecticidal activity does the source give for `CCc1ncccc1C(=O)Nc1c(NC2CC2)nc(Cl)nc1-c1ccc(F)cc1` [1-326] here?
Its insecticidal activity is 100%.

Which insecticidal activity does the source give for `CCc1ncccc1C(=O)Nc1c(Cl)ncnc1Nc1ccc(F)cc1` [5-2] here?
Its insecticidal activity is 100%.

— patent US8202877B2, “Aminopyrimidinamides as pesticides” (Bayer CropScience AG, priority 2009, dated 2012)
